Literature values, collected in patent publication US6436435B1, “Liposome formulation of 5 β steroids” (Super Gen, Inc., priority 1995, dated 2002).

Assays:
genetically obese mice = settings: variety of routes
[1] = system: genetically obese and diabetic mice; settings: maximal benefit when ingested
[2] = system: severely diabetic mammals; settings: oral administration
[3] = system: individuals suffering from Prader-Willi Syndrome; settings: in vivo
[4] = system: C57BL/KsJ-db/db diabetic mice; settings: for effectiveness in preventing development of diabetes relative to DHEA: C57BL/KsJ-db/db diabetic mice; for blood sugar / plasma insulin concentrations: mouse, in vivo
[5] = system: diabetic genetically obese mice; settings: supplied in the diet
obese mice = settings: injected im, ip or iv / parenteral
[6] = system: congenitally obese mice carrying the ob ob mutation

In the case of `C[C@]12CC[C@H](O)CC1=CC[C@@H]1[C@@H]2CC[C@]2(C)C(=O)CC[C@@H]12` [DHEA, 3-β-hydroxy-androst-5-en-17-one], the “rate of weight gain” value (genetically obese mice) is given as “decreased the rate of weight gain”, the development of diabetes [1] is given as “markedly reduced the development of diabetes” and the glucose tolerance [2] is given as “improved glucose tolerance”. For the same molecule, the hyperglycemia [2] was “restored hyperglycemia to normal levels”.

For `C[C@]12CCC(=O)C[C@H]1CC[C@@H]1[C@@H]2CC[C@]2(C)C(=O)CC[C@@H]12` [ED, 5β-androstane-3,17-dione], the “body weight in Prader-Willi Syndrome” value [3] is given as “either weight loss or a decrease in the rate of weight gain”, the “subjective or objective side effects” value (oral ED four grams per day) is given as “no significant subjective or objective side effects” and the “weight loss per week per 100 kilograms of body fat” value (oral ED four grams per day) is given as 0.5±0.91 kilograms per week per 100 kilograms of body fat. For the same molecule, the “mean weight loss during ED administration” value (oral ED four grams per day, 10 week period, 14 obese subjects) was 2.8±5.5 kilograms and the “mean fat loss, of the initial body fat content” value (over the 10 week period of ED administration) was “about 5%”.

In the case of `C[C@]12CC[C@@H](O)C[C@@H]1CC[C@@H]1[C@@H]2CC[C@]2(C)C(=O)CC[C@@H]12` [androsterone], the “effectiveness in preventing development of diabetes relative to DHEA” value (“effectiveness … of diabetes relative to DHEA” below) [4] is listed as “not”.

For `C[C@]12CC[C@H](O)C[C@@H]1CC[C@@H]1[C@@H]2CC[C@]2(C)C(=O)CC[C@@H]12` [epiandrosterone], the “effectiveness … of diabetes relative to DHEA” value [4] is listed as “not”.

For `C[C@]12CC[C@@H](O)C[C@H]1CC[C@@H]1[C@@H]2CC[C@]2(C)C(=O)CC[C@@H]12` [etiocholanolone], the “body weight in Prader-Willi Syndrome” value [3] is given as “either weight loss or a decrease in the rate of weight gain”.

In the case of `C[C@]12CC[C@@H](O)C[C@H]1CC[C@@H]1[C@@H]2CC[C@]2(C)C(=O)CC[C@@H]12` [α ET, 3α-hydroxy-5β-androstane-17-one], the anti-obesity properties [5] is given as “can prevent and arrest the development of obesity”, the “effectiveness … of diabetes relative to DHEA” value [4] is given as “four times more effective than DHEA” and the blood sugar [4] is given as “reduce blood sugar”. For the same molecule, the plasma insulin concentrations [4] was “increased plasma insulin concentrations” and the “anti-obesity effect, injected” value (obese mice) was “does not exert an anti-obesity effect”.

For `C[C@]12CC[C@H](O)C[C@H]1CC[C@@H]1[C@@H]2CC[C@]2(C)C(=O)CC[C@@H]12` [β ET, 3β-hydroxy-5β-androstane-17-one], the anti-obesity properties [5] is given as “can prevent and arrest the development of obesity”, the “effectiveness … of diabetes relative to DHEA” value [4] is given as “four times more effective than DHEA” and the blood sugar [4] is given as “reduce blood sugar”. The plasma insulin concentrations [4] was “increased plasma insulin concentrations” and the “anti-obesity effect, injected” value (obese mice) was “does not exert an anti-obesity effect”.

B1: OB protein: protein product of the recombinant gene ob in mice and its human homologue (protein, UniProt P41160 22-167, looked up)
Leptin: VPIQKVQDDTKTLIKTIVTRINDISHTQSVSAKQRVTGLDFIPGLHPILSLSKMDQTLAVYQQVLTSLPSQNVLQIANDLENLRDLLHLLAFSKSCSLPQTSGLQKPESLDGVLEASLYSTEVVALSRLQGSLQDILQQLDVSPEC
For B1, the “serum insulin and glucose levels” value ([6]; highest dose tested, 10 mg/kg per day) is listed as “normalized to the level typically seen in the non-mutant mice” and the body weight effect ([6]; parenteral administration) is listed as “weight reducing effects”.
